Data set [1] concerns the target T1, IRAK4 (Homo sapiens, UniProt Q9NWZ3).
T1 construct: endogenous in cells; host or cells: THP-1 cells
T1 sequence (Q9NWZ3 1-460): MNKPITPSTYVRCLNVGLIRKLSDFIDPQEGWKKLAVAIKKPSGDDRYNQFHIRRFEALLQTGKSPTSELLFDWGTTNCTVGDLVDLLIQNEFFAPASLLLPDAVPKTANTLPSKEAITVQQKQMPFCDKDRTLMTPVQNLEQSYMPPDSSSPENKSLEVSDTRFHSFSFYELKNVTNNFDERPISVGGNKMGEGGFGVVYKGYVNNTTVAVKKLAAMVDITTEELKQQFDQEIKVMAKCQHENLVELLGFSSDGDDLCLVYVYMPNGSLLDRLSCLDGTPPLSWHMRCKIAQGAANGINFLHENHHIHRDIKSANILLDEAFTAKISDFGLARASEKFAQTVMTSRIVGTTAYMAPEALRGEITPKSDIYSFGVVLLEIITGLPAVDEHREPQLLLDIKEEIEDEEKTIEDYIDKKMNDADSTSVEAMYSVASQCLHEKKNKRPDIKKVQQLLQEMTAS
In words: ALE THP1 HTRF (Advanced Lipoxidation End Product THP1 Homogeneous Time Resolved Fluorescence). In kind it is cell-based. Particulars: THP1 cells. Summed up:
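HTRF read-out of IRAK4 protein: anti-IRAK4 d2 and cryptate antibody pair added to BCA-normalized lysates, overnight dark room-temperature incubation. Lysis ran 45 min with shaking at room temperature; buffer, cryptate-only and negative controls included.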
For orientation: In TR-FRET formats the signal depends on donor and acceptor labels being close together.

The target in data set [2] is T1, IRAK4. In words: LVL THP1 HTRF (THP1 Homogeneous Time Resolved Fluorescence). It is filed as cell-based. Particulars: THP1 cells, 18 h incubation with compound; for DC50: read-out: LVL THP1 HTRF EC50. Put shortly:
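IRAK4 HTRF read-out (665/615 nm ratio, anti-IRAK4 d2 acceptor and K donor, 18 h dark incubation at room temperature) on lysates of THP-1 cells. Cells were treated 18 h at 37° C. with 20 nL compound in DMSO, in colorless RPMI with 10% FBS, with a duplicate CTG plate.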

Data set [3] is described as follows: Pharmacokinetic studies in mice (plasma PK, IV and PO). In kind it is in vivo. The conditions noted are these: female C57B16 mice; for FPO: PO 3.0 mg/kg vs IV 0.50 mg/kg, dose-normalized AUCLAST; for clearance: read-out: Clp; for Vd: read-out: VSS. How it is done: Due to the higher molecular weight and lipophilicity, targeted protein degraders generally occupy a physiochemical property space that is beyond Lipinski's rule of 5 and as consequence are expected to have poor oral bioavailability and overall pharmacokinetic properties. […] The plasma pharmacokinetics (PK) of P-394, P-155, P-139, and P-160 were characterized in female C57B16 mice following intravenous (IV; 0.5 mg/kg) administration. Plasma from the tail vein was withdrawn in composite fashion: one group of mice (n=3) provided samples at 2 min, 30 min, 2 h, and 8 h, while another group (n=3) provided samples at 15 min, 1 h, 4 h, and 24 h. The concentrations of test article in these samples were measured using reverse-phase LC-MS-MS and then plotted as a function of time. The resulting concentration-time data was processed using noncompartmental analysis for the calculation of clearance (Cl), volume of distribution at steady state (Vss), half-life, mean residence time (MRT) and area under the time curve (AUC).
Similarly, the PK was characterized following oral (PO; 3 mg/kg) administration. Again, plasma from the tail vein was withdrawn in composite fashion: one group of mice (n=3) provided samples at 15 min, 1 h, 4 h, and 8 h, while another group (n=3) provided samples at […], 2 h, and 24 h. Oral bioavailability (FPO) was calculated by comparing the results of the studies described, dividing the dose-normalized AUCLAST,PO by the dose-normalized AUCLAST,IV.

The mark [4] stands for this setting: mouse, 0.5 mg/kg, IV 0.50 mg/kg, plasma.
Where [5] appears, read: mouse, 0.5 mg/kg, plasma, IV 0.50 mg/kg.

Each structure is given as a SMILES string. Counter-ions that a name gives are not always drawn. Like-named read-outs stand apart in the source and are kept apart here. Where only a bound is given, the exact number is not on record here.

As to `C[C@H](C#N)Nc1cc(-n2ncc3cc(C#N)cnc32)ncc1-n1cc([C@H]2CC[C@H](CCN3CCN(c4ccc(C5CCC(=O)NC5=O)cc4)CC3)CC2)nn1` (stereo partly drawn) [P-139, 1-(4-(((R)-1-cyanoethyl)amino)-5-(4-((1r,4R)-4-(2-(4-(4-(2,6-dioxopiperidin-3-yl)phenyl)piperazin-1-yl)ethyl)cyclohexyl)-1H-1,2,3-triazol-1-yl)pyridin-2-yl)-1H-pyrazolo[3,4-b]pyridine-5-carbonitrile, formic acid salt], in data set [1], the “ALE THP1 HTRF YMIN” value was 5.6% and the EC50 was determined as 1 nM. In data set [2], the “LVL THP1 HTRF YMIN” value is 1.7% and the DC50 is 11 nM. The compound also displayed an FPO in data set [3] of 39%. Further, in data set [3] (setting [4]), the AUC(0-t) came to 1.06 µM·h, the MRT was 4.59 h, the half-life is 179 min and the clearance is 10.6 mL/min/kg. Further, the Vd in data set [3] (setting [4]) is 2.91 L/kg. Further, in data set [3] (mouse, PO 3.0 mg/kg, plasma), the AUC(0-t) amounted to 2.47 µM·h, the concentration peaked (Cmax) at 380 nM and the Tmax is 2 h.

Regarding `C[C@H](C#N)Nc1cc(-n2ncc3cc(C#N)cnc32)ncc1-n1cc(C2CCC(CCN3CCN(c4ccc(C5CCC(=O)NC5=O)cc4)[C@H](C)C3)CC2)nn1` (some centres unmarked) [P-155], in data set [1], the “ALE THP1 HTRF YMIN” value is 10.2% and the EC50 was determined as 2 nM. For the same compound, in data set [2], the “LVL THP1 HTRF YMIN” value was determined as 0.9% and the DC50 is 6 nM. The FPO in data set [3] is on record as around 100%. Moreover, in data set [3] (setting [4]), the AUC(0-t) turned out to be 2.01 µM·h, the MRT came to 3.3 h, the half-life is 246 min and the clearance is 5.45 mL/min/kg. Besides, the Vd in data set [3] (setting [4]) came out at 1.08 L/kg. In data set [3] (mouse, PO 3.0 mg/kg, plasma), the AUC(0-t) is 13.7 µM·h, the Cmax came to 3010 nM and the Tmax was determined as 2 h.

Consider `C[C@H](C#N)Nc1cc(-n2ncc3cc(C#N)c(N)nc32)ncc1-n1cc([C@H]2CC[C@H](CCN3CCN(c4ccc(C5CCC(=O)NC5=O)cc4)CC3)CC2)nn1` (stereo partly drawn) [P-160, 6-amino-1-(4-(((R)-1-cyanoethyl)amino)-5-(4-((1r,4R)-4-(2-(4-(4-(2,6-dioxopiperidin-3-yl)phenyl)piperazin-1-yl)ethyl)cyclohexyl)-1H-1,2,3-triazol-1-yl)pyridin-2-yl)-1H-pyrazolo[3,4-b]pyridine-5-carbonitrile, TFA], for which, in data set [1], the “ALE THP1 HTRF YMIN” value worked out at 5.8% and the EC50 was found to be 4 nM. Further, in data set [2], the “LVL THP1 HTRF YMIN” value was found to be 0.7% and the DC50 is 4 nM. Also, the FPO in data set [3] is given as 31.6%. Also, in data set [3] (setting [4]), the AUC(0-t) stood at 0.739 µM·h, the MRT is 3.8 h, the half-life was 192 min and the clearance worked out at 14.9 mL/min/kg. For the same compound, the Vd in data set [3] (setting [4]) is 3.37 L/kg. Moreover, in data set [3] (mouse, PO 3.0 mg/kg, plasma), the AUC(0-t) came to 1.4 µM·h, the Cmax was 245 nM and the Tmax is 2 h.

For the compound `C[C@H](C#N)Nc1cc(-n2ncc3cc(C#N)cnc32)ncc1C(=O)N[C@H]1CC[C@H](CCN2CCN(c3ccc(C4CCC(=O)NC4=O)cc3)C3(CCC3)C2)CC1` (some centres unmarked) [P-182], in data set [1], the “ALE THP1 HTRF YMIN” value turned out to be 9.4% and the EC50 came out at 5 nM. Also, in data set [2], the “LVL THP1 HTRF YMIN” value was 6.3% and the DC50 was 415 nM.

As for `C[C@H](C#N)Nc1cc(-n2ncc3cc(C#N)cnc32)ncc1C(=O)N[C@H]1CC[C@H](CCN2[C@@H]3C[C@H]2CN(c2ccc(C4CCC(=O)NC4=O)cc2)C3)CC1` (some centres unmarked) [P-183], in data set [1], the “ALE THP1 HTRF YMIN” value turned out to be 27.9% and the EC50 came out at 63 nM. In data set [2], the “LVL THP1 HTRF YMIN” value was below 0.5% and the DC50 was 12 nM.

For `C[C@H](C#N)Nc1cc(-n2ncc3cc(C#N)c(N)nc32)ncc1C(=O)N[C@H]1CC[C@H](CCN2CCN(c3ccc(C4CCC(=O)NC4=O)cc3)C(C(F)(F)F)C2)CC1` (some centres unmarked) [P-186], in data set [1], the “ALE THP1 HTRF YMIN” value amounted to 13.9% and a half-maximal effect (EC50) was put at 34 nM. In data set [2], the “LVL THP1 HTRF YMIN” value is 5.7% and the DC50 came to 29 nM.

As to `CC[C@@H]1CN(CC[C@H]2CC[C@H](c3cn(-c4cnc(-n5ncc6cc(C#N)cnc65)cc4N[C@H](C)C#N)nn3)CC2)CCN1c1ccc(N2CCC(=O)NC2=O)cn1` [P-394, 1-(4-(((R)-1-cyanoethyl)amino)-5-(4-((1R,4R)-4-(2-((R)-4-(5-(2,4-dioxotetrahydropyrimidin-1(2H)-yl)pyridin-2-yl)-3-ethylpiperazin-1-yl)ethyl)cyclohexyl)-1H-1,2,3-triazol-1-yl)pyridin-2-yl)-1H-pyrazolo[3,4-b]pyridine-5-carbonitrile], in data set [2], the “LVL THP1 HTRF YMIN” value amounted to 1.4% and the DC50 came to 6 nM. Also, in data set [3] (setting [5]), the AUC(0-t) worked out at 0.884 µM·h, the MRT stood at 2.2 h, the half-life is 102 min and the clearance was 11.8 mL/min/kg. Also, in data set [3] (setting [5]), the Vd worked out at 1.58 L/kg. Further, in data set [3] (mouse, plasma, PO 3.00 mg/kg vs IV 0.50 mg/kg, dose-normalized AUCLAST ratio, read-out: FPO (oral bioavailability)), the bioavailability was found to be 26.6%. In data set [3] (mouse, plasma, PO 3.00 mg/kg), the AUC(0-t) worked out at 1.41 µM·h, the concentration peaked (Cmax) at 559 nM and the Tmax is 0.25 h.

The EC50 is the concentration giving half of the maximal effect. A higher EC50 goes with weaker potency. The AUC(0-t) is exposure summed from dosing to a finite time, without extrapolation to infinity. What is called MRT is the average time that molecules of a dose stay in the body. As a reminder, the half-life is how long it takes for the measured level to halve. Broadly, the Cmax is the maximum level reached in the sampled fluid or tissue. A word on the Tmax: it is the time from dosing to the highest level. In general, bioavailability refers to the share of a dose that reaches the circulation, judged against a reference dose that is usually intravenous.

These data come from patent publication US20240109881A1, “Heteroaryl Compounds as Ligand Directed Degraders of IRAK4” (Bristol-Myers Squibb Company, priority 2022, published 2024).
